Experimental data: ChEMBL document CHEMBL5523727, “Discovery of KT-413, a Targeted Protein Degrader of IRAK4 and IMiD Substrates Targeting MYD88 Mutant Diffuse Large B-Cell Lymphoma” (J Med Chem, 2024)

Key:
[1] = biological target: Cereblon/Ikaros (Homo sapiens, UniProt Q96SW2+Q13422); assay: PROTAC activity at CRBN/Ikaros in human OCI-Ly10 cells assessed as induction of Ikaros degradation measured after 24 hrs by MSD assay; format: cell-based
[2] = Passive permeability of the compound in wild type MDCK cells across apical to basolateral side at 1 uM measured for 120 mins by LC-MS/MS analysis; format: ADME, cell-based, Canis lupus familiaris; details: dog, read-out: permeability
[3] = Metabolic stability in human liver microsomes assessed as intrinsic clearance at 1 uM measured upto 60 mins in presence of NADPH by UPLC/MS-MS analysis; format: ADME, Microsome; details: read-out: CLH
[4] = Metabolic stability in rat liver microsomes assessed as intrinsic clearance at 1 uM measured upto 60 mins in presence of NADPH by UPLC/MS-MS analysis; format: ADME, Microsome; details: read-out: CLH
[5] = biological target: Protein cereblon (Homo sapiens, UniProt Q96SW2); assay: Binding affinity to CRBN (unknown origin) by HTRF assay
[6] = biological target: T1, Protein cereblon/Interleukin-1 receptor-associated kinase 4 (Homo sapiens, UniProt Q9NWZ3+Q96SW2); assay: PROTAC activity at CRBN/IRAK4 in human OCI-Ly10 cells assessed as induction of IRAK4 degradation measured after 24 hrs by MSD assay; format: cell-based
Target sequence in this assay (Q9NWZ3 whole entry): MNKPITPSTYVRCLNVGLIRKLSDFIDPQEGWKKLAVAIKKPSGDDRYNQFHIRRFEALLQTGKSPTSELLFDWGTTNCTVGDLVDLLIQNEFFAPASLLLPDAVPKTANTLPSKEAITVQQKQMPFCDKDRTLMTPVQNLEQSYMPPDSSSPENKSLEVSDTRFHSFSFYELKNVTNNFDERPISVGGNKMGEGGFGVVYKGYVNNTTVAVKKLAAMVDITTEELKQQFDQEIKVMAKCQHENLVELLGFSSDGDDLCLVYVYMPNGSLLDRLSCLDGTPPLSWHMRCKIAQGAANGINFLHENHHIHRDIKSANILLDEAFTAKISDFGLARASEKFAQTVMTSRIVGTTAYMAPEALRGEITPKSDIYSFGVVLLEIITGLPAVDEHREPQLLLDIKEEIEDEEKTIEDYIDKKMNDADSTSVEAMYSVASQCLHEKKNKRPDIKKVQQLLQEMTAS
Target sequence in this assay (Q96SW2 whole entry): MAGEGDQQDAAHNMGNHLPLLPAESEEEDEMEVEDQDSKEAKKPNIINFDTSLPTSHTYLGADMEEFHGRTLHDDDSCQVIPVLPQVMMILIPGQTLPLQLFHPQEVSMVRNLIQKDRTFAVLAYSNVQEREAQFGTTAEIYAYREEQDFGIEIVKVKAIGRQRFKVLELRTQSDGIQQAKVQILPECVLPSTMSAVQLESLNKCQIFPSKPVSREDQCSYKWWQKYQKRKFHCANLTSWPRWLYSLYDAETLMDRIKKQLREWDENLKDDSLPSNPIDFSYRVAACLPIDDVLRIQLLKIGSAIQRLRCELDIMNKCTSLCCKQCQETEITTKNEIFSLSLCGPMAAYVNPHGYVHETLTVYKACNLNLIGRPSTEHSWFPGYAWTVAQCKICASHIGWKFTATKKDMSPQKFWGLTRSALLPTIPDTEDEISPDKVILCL

[7] = tested on: OCI-Ly10; assay: Antiproliferative activity against human OCI-Ly10 cells measured after 4 days by CellTiter-Glo Luminescent Cell Viability Assay; format: functional, cell-based
[8] = AUC in rat at 10 mg/kg, po by LC-MS/MS analysis; format: ADME, organism-based; details: in vivo
[9] = Clearance in rat at 2 mg/kg, iv by LC-MS/MS analysis; format: ADME, organism-based; details: in vivo
[10] = Half life in rat at 2 mg/kg, iv by LC-MS/MS analysis; format: ADME, organism-based; details: in vivo
[11] = Volume of distribution at steady state in rat at 2 mg/kg, iv by LC-MS/MS analysis; format: ADME, organism-based; details: in vivo, read-out: Vdss
[12] = Oral bioavailability in rat at 10 mg/kg by LC-MS/MS analysis; format: ADME, organism-based; details: in vivo; for F: po, 10 mg/kg
[13] = biological target: Protein cereblon/Interleukin-1 receptor-associated kinase 4 (Homo sapiens, UniProt Q96SW2+Q9NWZ3); assay: Binding affinity to CRBN/IRAK4 […] assessed as dissociation constant by DiscoverX Kd Elect assay
[14] = biological target: T1, Protein cereblon/Interleukin-1 receptor-associated kinase 4; assay: PROTAC activity at CRBN/IRAK4 in human OCI-Ly10 cells assessed as induction of IRAK4 degradation measured after 24 hrs by MSD assay relative to control; format: cell-based
Target sequence in this assay (Q96SW2 whole entry, looked up): as the sequence (Q96SW2 whole entry) above
Target sequence in this assay (Q9NWZ3 whole entry, looked up): as the sequence (Q9NWZ3 whole entry) above

Sequence of Protein cereblon (Q96SW2 whole entry): as the sequence (Q96SW2 whole entry) above
Sequence of Cereblon/Ikaros (Q96SW2 whole entry): as above
Sequence of Cereblon/Ikaros (Q13422 whole entry): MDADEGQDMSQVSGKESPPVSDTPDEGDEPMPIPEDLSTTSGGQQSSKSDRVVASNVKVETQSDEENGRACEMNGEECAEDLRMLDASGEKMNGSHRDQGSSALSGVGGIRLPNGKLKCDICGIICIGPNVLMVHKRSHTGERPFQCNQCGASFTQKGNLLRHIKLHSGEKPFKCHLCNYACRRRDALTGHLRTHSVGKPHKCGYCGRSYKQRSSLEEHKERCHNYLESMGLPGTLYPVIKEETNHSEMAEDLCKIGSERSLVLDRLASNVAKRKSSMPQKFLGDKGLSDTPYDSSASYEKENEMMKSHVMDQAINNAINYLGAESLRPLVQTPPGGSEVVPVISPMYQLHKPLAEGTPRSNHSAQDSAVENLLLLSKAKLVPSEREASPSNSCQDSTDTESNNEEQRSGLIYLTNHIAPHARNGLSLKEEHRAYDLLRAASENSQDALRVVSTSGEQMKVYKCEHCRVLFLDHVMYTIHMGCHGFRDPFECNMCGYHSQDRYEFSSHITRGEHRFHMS
Sequence of Protein cereblon/Interleukin-1 receptor-associated kinase 4 (Homo sapiens, UniProt Q96SW2+Q9NWZ3) (Q9NWZ3 whole entry): as the sequence (Q9NWZ3 whole entry) above
Sequence of Protein cereblon/Interleukin-1 receptor-associated kinase 4 (Homo sapiens, UniProt Q96SW2+Q9NWZ3) (Q96SW2 whole entry): as the sequence (Q96SW2 whole entry) above

Compound: CN(CCCO[C@H]1C[C@H](Nc2cccc3c2C(=O)N(C2CCC(=O)NC2=O)C3=O)C1)C[C@H]1CC[C@H](n2cc3cc(NC(=O)c4cccc(C(F)(F)F)n4)ccc3n2)CC1 (stereo not given in full)
- DC50 [1]: 10 nM
- Papp A→B at 2 h, 1 µM [2]: 5.5 ×10⁻⁶ cm/s
- microsomal CLint at 1 µM [3]: 102 µL/min/mg
- microsomal CLint at 1 µM [4]: 11 µL/min/mg
- IC50 [5]: 24 nM
- DC50 [6]: 33 nM
- IC50 ([7]; Homo sapiens, OCI-Ly10, 96 h): 75 nM

Compound: CC(C)(O)c1cc2nn([C@H]3CC[C@H](CN4CCC(O[C@H]5C[C@H](Nc6cccc7c6C(=O)N(C6CCC(=O)NC6=O)C7=O)C5)CC4)CC3)cc2cc1NC(=O)c1cccc(C(F)(F)F)n1 (stereo not given in full)
- AUC ([8]; read-out: AUC): 5.3 µM·h
- DC50 [1]: 470 nM
- clearance [9]: 7 mL/min/kg
- Papp A→B at 2 h, 1 µM [2]: 26 ×10⁻⁶ cm/s
- microsomal CLint at 1 µM [3]: 4.1 µL/min/mg
- half-life [10]: 16 h
- Vd [11]: 8.9 L/kg
- microsomal CLint at 1 µM [4]: 3.8 µL/min/mg
- bioavailability [12]: 29%
- IC50 [5]: 26 nM
- DC50 [6]: 5 nM
- IC50 ([7]; Homo sapiens, OCI-Ly10, 96 h): 2300 nM

Compound: CN(CCCN(C)c1cccc2c1C(=O)N(C1CCC(=O)NC1=O)C2=O)C[C@H]1CC[C@H](n2cc3cc(NC(=O)c4cccc(C(F)(F)F)n4)c(C(C)(C)O)cc3n2)CC1 (stereo not given in full)
- DC50 [1]: 282 nM
- Kd [13]: 0.64 nM
- Papp A→B at 2 h, 1 µM [2]: 4.2 ×10⁻⁶ cm/s
- microsomal CLint at 1 µM [3]: 300 µL/min/mg
- microsomal CLint at 1 µM [4]: 250 µL/min/mg
- IC50 [5]: 200 nM
- DC50 [6]: 14 nM
- IC50 ([7]; Homo sapiens, OCI-Ly10, 96 h): 308 nM

Compound: CC(C)(O)c1cc2nn([C@H]3CC[C@H](CN4CCC5(CC4)CC(Nc4cccc6c4C(=O)N(C4CCC(=O)NC4=O)C6=O)C5)CC3)cc2cc1NC(=O)c1cccc(C(F)(F)F)n1 (stereo not given in full)
- AUC ([8]; read-out: AUC): 1.4 µM·h
- DC50 [1]: 27 nM
- clearance [9]: 13 mL/min/kg
- Papp A→B at 2 h, 1 µM [2]: 2.8 ×10⁻⁶ cm/s
- microsomal CLint at 1 µM [3]: 1.2 µL/min/mg
- half-life [10]: 12 h
- Vd [11]: 13 L/kg
- microsomal CLint at 1 µM [4]: 2.7 µL/min/mg
- bioavailability [12]: 17%
- IC50 [5]: 10 nM
- DC50 [6]: 3 nM
- IC50 ([7]; Homo sapiens, OCI-Ly10, 96 h): 25 nM

Compound: O=C1CCC(N2C(=O)c3cccc(NCC4CC5(CCN(C[C@H]6CC[C@H](n7cc8cc(NC(=O)c9cccc(C(F)(F)F)n9)c(C(F)F)cc8n7)CC6)CC5)C4)c3C2=O)C(=O)N1 (stereo not given in full)
- AUC ([8]; po, 10 mg/kg): 1.5 µM·h
- DC50 [1]: 69 nM
- Papp A→B at 2 h, 1 µM [2]: 2.7 ×10⁻⁶ cm/s
- microsomal CLint at 1 µM [3]: < 1.8 µL/min/mg
- half-life [10]: 29 h
- Vd [11]: 11 L/kg
- microsomal CLint at 1 µM [4]: < 1.8 µL/min/mg
- F [12]: 16%
- IC50 [5]: 58 nM
- DC50 [6]: 56 nM
- IC50 ([7]; Homo sapiens, OCI-Ly10, 96 h): 142 nM

Compound: COc1cc2nn([C@H]3CC[C@H](CN4CCC5(CC4)CC(CNc4cccc6c4C(=O)N(C4CCC(=O)NC4=O)C6=O)C5)CC3)cc2cc1NC(=O)c1cccc(C(F)(F)F)n1 (stereo not given in full)
- AUC ([8]; po, 10 mg/kg): 1.88 µM·h
- DC50 [1]: 43 nM
- Papp A→B at 2 h, 1 µM [2]: 1.3 ×10⁻⁶ cm/s
- microsomal CLint at 1 µM [3]: 2.7 µL/min/mg
- half-life [10]: 25 h
- Vd [11]: 11 L/kg
- microsomal CLint at 1 µM [4]: 1.6 µL/min/mg
- F [12]: 11%
- IC50 [5]: 66 nM
- DC50 [6]: 16 nM
- IC50 ([7]; Homo sapiens, OCI-Ly10, 96 h): 84 nM

Compound: CN(C[C@H]1CC[C@H](n2cc3cc(NC(=O)c4cccc(C(F)(F)F)n4)c(C(C)(C)O)cc3n2)CC1)[C@H]1CC[C@]2(CC1)C[C@H](Nc1cccc3c1C(=O)N(C1CCC(=O)NC1=O)C3=O)C2 (stereo not given in full)
- DC50 [1]: 57 nM
- Papp A→B at 2 h, 1 µM [2]: 2.1 ×10⁻⁶ cm/s
- microsomal CLint at 1 µM [3]: < 1.8 µL/min/mg
- microsomal CLint at 1 µM [4]: < 1.8 µL/min/mg
- IC50 [5]: 8 nM
- DC50 [6]: 6 nM
- IC50 ([7]; Homo sapiens, OCI-Ly10, 96 h): 78 nM

Compound: COc1cc2nc([C@H]3CC[C@H](CN4CC5(CC(CCNc6cccc7c6C(=O)N(C6CCC(=O)NC6=O)C7=O)C5)C4)CC3)n(C)c2cc1NC(=O)c1cccc(C(F)(F)F)n1 (stereo not given in full)
- AUC ([8]; read-out: AUC): 0.09 µM·h
- DC50 [1]: 2 nM
- clearance [9]: 41 mL/min/kg
- Papp A→B at 2 h, 1 µM [2]: 0.4 ×10⁻⁶ cm/s
- microsomal CLint at 1 µM [3]: 7 µL/min/mg
- half-life [10]: 11 h
- Vd [11]: 33 L/kg
- microsomal CLint at 1 µM [4]: 2.2 µL/min/mg
- bioavailability [12]: 2.3%
- DC50 [6]: 33 nM
- IC50 ([7]; Homo sapiens, OCI-Ly10, 96 h): 35 nM

Compound: CC(C)(O)c1cc2c(cnn2CCCCCCCCCNc2cccc3c2C(=O)N(C2CCC(=O)NC2=O)C3=O)cc1NC(=O)c1cccc(C(F)(F)F)n1 (stereo not given)
- DC50 [1]: 56 nM
- Kd [13]: > 3000 nM
- IC50 [5]: 880 nM
- Emax [14]: 30%
- DC50 [6]: > 10000 nM
- IC50 ([7]; Homo sapiens, OCI-Ly10, 96 h): 660 nM

Compound: CN(CCCO[C@H]1C[C@H](Nc2cccc3c2C(=O)N(C2CCC(=O)NC2=O)C3=O)C1)C[C@H]1CC[C@H](n2cc3cc(NC(=O)c4cccc(C(F)(F)F)n4)c(C(F)F)cc3n2)CC1 (stereo not given in full)
- DC50 [1]: 17 nM
- Papp A→B at 2 h, 1 µM [2]: 0.76 ×10⁻⁶ cm/s
- microsomal CLint at 1 µM [3]: 25 µL/min/mg
- microsomal CLint at 1 µM [4]: 32 µL/min/mg
- IC50 [5]: 24 nM
- DC50 [6]: 13 nM
- IC50 ([7]; Homo sapiens, OCI-Ly10, 96 h): 46 nM

Compound: CN(C[C@H]1CC[C@H](n2cc3cc(NC(=O)c4cccc(C(F)(F)F)n4)c(C(C)(C)O)cc3n2)CC1)[C@H]1CC[C@@]2(CC1)C[C@H](Nc1cccc3c1C(=O)N(C1CCC(=O)NC1=O)C3=O)C2 (stereo not given in full)
- DC50 [1]: 19 nM
- Papp A→B at 2 h, 1 µM [2]: 2.9 ×10⁻⁶ cm/s
- microsomal CLint at 1 µM [3]: < 1.8 µL/min/mg
- microsomal CLint at 1 µM [4]: < 1.8 µL/min/mg
- IC50 [5]: 5 nM
- DC50 [6]: 13 nM
- IC50 ([7]; oci-ly10): 134 nM

Compound: Nc1cccc2c1C(=O)N(C1CCC(=O)NC1=O)C2=O (stereo not given) [POMALIDOMIDE]
- IC50 ([7]; Homo sapiens, OCI-Ly10, 96 h): 1400 nM
